Measurements as given in ChEMBL document CHEMBL1152583 (Bioorg Med Chem, 2009).

Columns and labels:
Acetylcholinesterase [1] = molecular target: Acetylcholinesterase (Homo sapiens, UniProt P22303)
Description: Inhibition of human AChE by Ellman's method

Acetylcholinesterase [2] = molecular target: Acetylcholinesterase (Torpedo californica, UniProt P04058)
Description: Inhibition of Torpedo california AChE by Ellman's method

[3] = molecular target: Acetylcholinesterase (Torpedo californica) (UniProt P04058); experiment: Inhibition of Torpedo california AChE at 7.56 nM by Ellman's method; settings: Tetronarce californica
Sequence of Acetylcholinesterase (Torpedo californica) (P04058 22-564 limits assumed): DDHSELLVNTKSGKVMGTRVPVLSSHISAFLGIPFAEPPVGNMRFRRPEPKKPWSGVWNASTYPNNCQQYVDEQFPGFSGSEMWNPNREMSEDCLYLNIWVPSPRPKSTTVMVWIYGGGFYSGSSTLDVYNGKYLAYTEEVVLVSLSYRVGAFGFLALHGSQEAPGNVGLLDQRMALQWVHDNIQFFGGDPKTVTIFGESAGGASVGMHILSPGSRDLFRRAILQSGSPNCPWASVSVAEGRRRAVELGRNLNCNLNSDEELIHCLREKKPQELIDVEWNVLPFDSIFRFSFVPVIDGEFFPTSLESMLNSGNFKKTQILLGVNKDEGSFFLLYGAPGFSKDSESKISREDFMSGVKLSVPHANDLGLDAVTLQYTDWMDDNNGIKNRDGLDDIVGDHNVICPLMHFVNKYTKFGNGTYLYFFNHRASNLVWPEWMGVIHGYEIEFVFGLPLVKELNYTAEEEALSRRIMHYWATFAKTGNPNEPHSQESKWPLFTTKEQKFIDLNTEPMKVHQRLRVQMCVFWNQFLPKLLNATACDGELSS

[4] = molecular target: Acetylcholinesterase (Torpedo californica) (UniProt P04058); experiment: Inhibition of Torpedo california AChE at 30.3 nM by Ellman's method; settings: Tetronarce californica
[5] = molecular target: Acetylcholinesterase (Torpedo californica) (UniProt P04058); experiment: Inhibition of Torpedo california AChE at 15.1 nM by Ellman's method; settings: Tetronarce californica
[6] = molecular target: Acetylcholinesterase (Torpedo californica) (UniProt P04058); settings: Tetronarce californica; 25 uM
Description: Inhibition of Torpedo california AChE at 25 uM by Ellman's method

[7] = molecular target: Acetylcholinesterase (Torpedo californica) (UniProt P04058); settings: Tetronarce californica; 0.313 uM
Description: Inhibition of Torpedo california AChE at 0.313 uM by Ellman's method

[8] = molecular target: Acetylcholinesterase (Torpedo californica) (UniProt P04058); settings: Tetronarce californica; 0.625 uM
Description: Inhibition of Torpedo california AChE at 0.625 uM by Ellman's method

[9] = molecular target: Acetylcholinesterase (Torpedo californica) (UniProt P04058); settings: Tetronarce californica; 1.25 uM
Description: Inhibition of Torpedo california AChE at 1.25 uM by Ellman's method

[10] = molecular target: Acetylcholinesterase (Torpedo californica) (UniProt P04058); settings: Tetronarce californica; 5 uM
Description: Inhibition of Torpedo california AChE at 5 uM by Ellman's method

[11] = molecular target: Acetylcholinesterase (Torpedo californica) (UniProt P04058); experiment: Inhibition of Torpedo california AChE at 0.25 nM by Ellman's method; settings: Tetronarce californica
[12] = molecular target: Acetylcholinesterase (Torpedo californica) (UniProt P04058); experiment: Inhibition of Torpedo california AChE at 0.313 nM by Ellman's method; settings: Tetronarce californica
[13] = molecular target: Acetylcholinesterase (Torpedo californica) (UniProt P04058); experiment: Inhibition of Torpedo california AChE at 1.25 nM by Ellman's method; settings: Tetronarce californica
[14] = molecular target: Acetylcholinesterase (Torpedo californica) (UniProt P04058); experiment: Inhibition of Torpedo california AChE at 0.625 nM by Ellman's method; settings: Tetronarce californica
[15] = molecular target: Acetylcholinesterase (Torpedo californica) (UniProt P04058); experiment: Inhibition of Torpedo california AChE at 0.5 nM by Ellman's method; settings: Tetronarce californica
[16] = molecular target: Acetylcholinesterase (Torpedo californica) (UniProt P04058); experiment: Inhibition of Torpedo california AChE at 7.81 pM by Ellman's method; settings: Tetronarce californica
[17] = molecular target: Acetylcholinesterase (Torpedo californica) (UniProt P04058); experiment: Inhibition of Torpedo california AChE at 15.6 pM by Ellman's method; settings: Tetronarce californica
[18] = molecular target: Acetylcholinesterase (Torpedo californica) (UniProt P04058); experiment: Ratio of IC50 for drug to P0407 for Torpedo california AChE by Ellman's method; settings: Tetronarce californica
[19] = molecular target: Acetylcholinesterase (Torpedo californica) (UniProt P04058); experiment: Inhibition of Torpedo california AChE at 0.125 nM by Ellman's method; settings: Tetronarce californica
[20] = molecular target: Acetylcholinesterase (Torpedo californica) (UniProt P04058); experiment: Inhibition of Torpedo california AChE at 62.5 pM by Ellman's method; settings: Tetronarce californica
[21] = molecular target: Acetylcholinesterase (Torpedo californica) (UniProt P04058); experiment: Inhibition of Torpedo california AChE at 31.3 pM by Ellman's method; settings: Tetronarce californica
[22] = molecular target: Acetylcholinesterase (Torpedo californica) (UniProt P04058); settings: Tetronarce californica; 60.5 nM
Description: Inhibition of Torpedo california AChE at 60.5 nM by Ellman's method

[23] = molecular target: Acetylcholinesterase (Torpedo californica) (UniProt P04058); experiment: Inhibition of Torpedo california AChE at 2.5 nM by Ellman's method; settings: Tetronarce californica
[24] = molecular target: Acetylcholinesterase (Torpedo californica) (UniProt P04058); experiment: Inhibition of Torpedo california AChE at 5 nM by Ellman's method; settings: Tetronarce californica

Sequence of Acetylcholinesterase (Torpedo californica, UniProt P04058) (P04058 whole entry): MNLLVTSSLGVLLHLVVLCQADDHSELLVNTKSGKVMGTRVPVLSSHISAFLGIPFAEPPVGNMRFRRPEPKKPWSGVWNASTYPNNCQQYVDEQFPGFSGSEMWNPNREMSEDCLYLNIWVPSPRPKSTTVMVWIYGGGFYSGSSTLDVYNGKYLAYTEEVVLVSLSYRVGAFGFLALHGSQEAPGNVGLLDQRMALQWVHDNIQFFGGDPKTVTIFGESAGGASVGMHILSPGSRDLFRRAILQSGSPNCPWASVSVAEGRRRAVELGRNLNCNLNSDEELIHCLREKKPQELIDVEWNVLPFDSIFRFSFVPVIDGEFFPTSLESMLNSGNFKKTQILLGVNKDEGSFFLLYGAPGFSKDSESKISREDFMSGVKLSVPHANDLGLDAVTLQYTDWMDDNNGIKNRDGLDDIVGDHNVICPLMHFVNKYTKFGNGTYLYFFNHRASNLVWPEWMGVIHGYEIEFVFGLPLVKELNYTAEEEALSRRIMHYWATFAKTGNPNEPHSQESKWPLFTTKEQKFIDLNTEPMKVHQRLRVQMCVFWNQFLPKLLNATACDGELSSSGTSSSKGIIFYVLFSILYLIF
Sequence of Acetylcholinesterase (Homo sapiens, UniProt P22303) (P22303 whole entry): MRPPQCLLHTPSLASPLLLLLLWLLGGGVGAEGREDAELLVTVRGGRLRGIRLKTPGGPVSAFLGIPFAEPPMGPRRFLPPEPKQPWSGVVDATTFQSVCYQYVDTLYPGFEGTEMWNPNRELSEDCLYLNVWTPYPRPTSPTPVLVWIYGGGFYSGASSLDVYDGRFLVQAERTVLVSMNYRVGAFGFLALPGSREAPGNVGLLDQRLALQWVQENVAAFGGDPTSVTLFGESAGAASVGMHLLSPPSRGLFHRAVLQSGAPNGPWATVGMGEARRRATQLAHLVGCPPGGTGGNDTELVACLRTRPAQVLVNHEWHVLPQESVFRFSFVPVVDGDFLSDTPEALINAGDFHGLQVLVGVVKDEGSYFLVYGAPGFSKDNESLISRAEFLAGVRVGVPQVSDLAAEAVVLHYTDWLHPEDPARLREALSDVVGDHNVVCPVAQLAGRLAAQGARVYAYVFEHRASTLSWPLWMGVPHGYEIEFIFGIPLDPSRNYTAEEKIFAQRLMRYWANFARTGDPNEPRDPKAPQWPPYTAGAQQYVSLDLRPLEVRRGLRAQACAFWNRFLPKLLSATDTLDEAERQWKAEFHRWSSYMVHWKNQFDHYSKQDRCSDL

`C/C=C1\[C@H]2C=C(C)C[C@]1(/N=C/c1ccc(N(C)C)cc1)c1ccc(=O)[nH]c1C2` gave an IC50 (Acetylcholinesterase [1]) of 31 nM and an IC50 (Acetylcholinesterase [2]) of 23.3 nM.

For `CNC(=O)Oc1ccc2c(c1)[C@]1(C)CCN(C)[C@@H]1N2C`, the inhibition [3] was 24.7%, the inhibition [4] was 64.3% and the inhibition [5] was 45.5%.

Molecule `C/C=C1\[C@H]2C=C(C)C[C@]1(/N=C/C(=C/c1ccccc1)CCCCC)c1ccc(=O)[nH]c1C2` has an inhibition [6] of 79%, an inhibition [7] of 30.4% and an inhibition [8] of 44.2%. For the same molecule, the inhibition [9] was 58.6%, the IC50 (Acetylcholinesterase [1]) was 51 nM and the inhibition [10] was 86%. It also gave an IC50 (Acetylcholinesterase [2]) of 796 nM.

In the case of `C/C=C1\[C@H]2C=C(C)C[C@]1(/N=C/c1ccc(O)c(OCC)c1)c1ccc(=O)[nH]c1C2`, the inhibition [11] is reported as 68.1%, the inhibition [12] is reported as 28.2% and the inhibition [13] is reported as 56.2%. The inhibition [14] was 43.6%, the inhibition [15] was 84% and the IC50 (Acetylcholinesterase [1]) was 25 nM. For the same molecule, the IC50 (Acetylcholinesterase [2]) was 0.842 nM.

`C/C=C1\[C@H]2C=C(C)C[C@]1(/N=C/c1ccccc1OS(=O)(=O)O)c1ccc(=O)[nH]c1C2` was tested, and the IC50 (Acetylcholinesterase [1]) was 41 nM and the IC50 (Acetylcholinesterase [2]) was 18.2 nM.

Work on `C/C=C1\[C@H]2C=C(C)C[C@]1(/N=C/c1ccc(C#N)cc1)c1ccc(=O)[nH]c1C2` yielded an inhibition [16] of 12.6%, an inhibition [17] of 26% and a Ratio [18] of 517. For the same molecule, the IC50 (Acetylcholinesterase [1]) was 22 nM, the IC50 (Acetylcholinesterase [2]) was 0.0412 nM and the inhibition [19] was 89.3%. The inhibition [20] was 79.4% and the inhibition [21] was 38.7%.

With `C=CCOc1ccc(/C=N/[C@@]23CC(C)=C[C@@H](Cc4[nH]c(=O)ccc42)/C3=C\C)cc1` the IC50 (Acetylcholinesterase [1]) was 31 nM and the IC50 (Acetylcholinesterase [2]) was 13.9 nM.

`C/C=C1\[C@H]2C=C(C)C[C@]1(/N=C/c1cc(OC)cc(OC)c1)c1ccc(=O)[nH]c1C2` showed an inhibition [16] of 28.5%, an inhibition [17] of 41.3% and an inhibition [22] of 73.7%. The Ratio [18] was 1060, the IC50 (Acetylcholinesterase [1]) was 29 nM and the IC50 (Acetylcholinesterase [2]) was 0.02 nM. For the same molecule, the inhibition [19] was 90.8%, the inhibition [20] was 80.6% and the inhibition [21] was 61.7%.

In the case of `C/C=C1\[C@H]2C=C(C)C[C@]1(/N=C/C=C/c1ccccc1)c1ccc(=O)[nH]c1C2`, the inhibition [12] is reported as 5.5%, the inhibition [13] is reported as 37.1% and the inhibition [14] is reported as 16.7%. The inhibition [23] was 62.5%, the IC50 (Acetylcholinesterase [1]) was 24 nM and the inhibition [24] was 83.4%. It also gave an IC50 (Acetylcholinesterase [2]) of 1.81 nM.

Work on `C/C=C1\[C@H]2C=C(C)C[C@]1(/N=C/c1ccc(OC)cc1OC)c1ccc(=O)[nH]c1C2` yielded an inhibition [16] of 15.9%, an inhibition [17] of 22.1% and a Ratio [18] of 477. For the same molecule, the IC50 (Acetylcholinesterase [1]) was 84 nM, the IC50 (Acetylcholinesterase [2]) was 0.0446 nM and the inhibition [19] was 76.5%. For the same molecule, the inhibition [20] was 62.8% and the inhibition [21] was 36.2%.
